COc1ccccc1OCCNCC(O)COc1cccc2[nH]c3ccccc3c12 (stereo not drawn)
solubility (mole fraction)
Settings	278.15 K	283.15 K	288.15 K	293.15 K	298.15 K	303.15 K	308.15 K	313.15 K
in THF	0.00043	0.00061	0.00085	0.00118	0.00167	0.00227	0.00302	0.004
in acetone	0.00064	0.00088	0.00117	0.00154	0.0021	0.00268	0.00354	0.0046
in ethanol	0.00062	0.00085	0.00112	0.00143	0.00185	0.00246	0.00306	0.00389
in ethyl acetate	0.00063	0.00086	0.00146	0.00187	0.0024	0.00294	0.00371	0.00424
in methanol	0.00063	0.00087	0.00114	0.0015	0.00201	0.00256	0.00329	0.00419
in water	0.0196	0.0232	0.0278	0.033	0.0398	0.0468	0.0552	0.0641
